# How the values were obtained:
# SiHa (HPV16+) cells = test: Cell proliferation/viability assay, SiHa cells; assay type: cell-based; conditions: Homo sapiens, 96 h, 4 days
# Description: (§1) Caski (catalog number CRL-1550), SiHa (catalog number HTB-35), C33A (catalog number HTB-31), Saos-2 (ATCC HTB-85), and Hela (catalog number CCL-2) cells were obtained from the American Type Culture Collection (ATCC). The human cervical carcinoma cell lines Caski. SiHa, Hela and C33A, and the human osteosarcoma cell line Saos-2, and the human keratinocyte cell line HaCaT were cultured in Dulbecco's Modified Eagle Medium (DMEM, Invitrogen catalog number 11965-092) supplemented with 10% fetal bovine serum. The colorectal carcinoma cell line HCT-116 was cultured in Roswell Park Memorial Institute-1640 Medium (Invitrogen catalog number 11875-093) supplemented with 10% FBS. All cells were incubated at 37° C. in a humidified atmosphere with 5% CO2 in air. To establish the SCHPV-18 cell line, one million primary neonatal human foreskin keratinocytes (Invitrogen, catalog no. C-001-5C), cultured in KBM Gold-keratinocvte cell basal medium (Lonza, catalog no. 192060), were electroporated with 5 μg HPV-18 plasmid DNA (ATCC catalog no. 45152D) using the Amaxa Nucleofector II on setting T-007. Cells were co-transfected with 2 μg plasmid pZSGreen1-N1 (Clontech catalog no. 632448) encoding G418 resistance, and cells were selected for four days in 100 μg/ml G418, after which selection was removed. Cells were maintained in culture six months prior to compound testing. Integration of the HPV 18 genome was confirmed by Southern blot. Control cells transfected in parallel with pZSGreen1-N1 alone became senescent four days after selection and the culture could not be expanded. SCHPV-18 cells were maintained in E medium (Fehrmann F, Laimins L A. Human papillomavirus type 31 life cycle: methods for study using tissue culture models. Methods Mol Biol 2005; 292:317-330).
# (§2) For proliferation assays, cells were plated in white polystyrene 96-well plates (Costar catalog number 3917) for CellTiter Glo viability assays or 96-well special optics plates (Costar cat #3614) for CellTiter Blue viability assays. Cells were plated in the appropriate growth medium without antibiotics. Two hours after cell plating, a 200× compound stock diluted in DMSO was added to a final concentration of 0.5%. Plates were incubated at 37° C., for 4 days and then cell viability was assessed using either CellTiter Blue (Promega catalog number G8081) or CellTiter Glo (Promega catalog number G7572) according to the manufacturer's instructions. For the CellTiter Blue viability assay, data was collected using the SpectraMax Gemini EM (Molecular Devices) with an excitation wavelength of 530 nm and emission wavelength of 590 nm. For the CellTiter Glo viability assay, data was collected using the Envision Mulitlabel Reader (Perkin Elmer catalog number 2104-0010). To calculate IC50 and EC50 values, percent inhibition curves were fit using a four-parameter logistic formula [y=A+[…]], where A and B denote minimal and maximal % inhibition, respectively, C is the IC50 value, D is the Hill slope, and x represents compound concentration.
# (§3) Table C, below, sets out the results obtained employing various compounds of the invention tested for their effects on proliferation of such cells. Caski or SiHa cells, transformed by HPV 16, Hela cells, transformed by HPV 18, or HPV-negative control cell lines (Saos-2 or C33a) were treated with various compounds. […] Unlike the HPV-negative Saos-2 or C33a cell lines, the HPV-transformed cell lines rely on the presence of HPV for their continued proliferation. Therefore, a comparison of IC50 values from HPV-transformed cell lines with IC50 values obtained from HPV-negative cell lines can be used to test for compound selectivity.
# Saos-2 (HPV−) cells = test: Cell proliferation/viability assay, Saos-2 cells; assay type: cell-based; conditions: Homo sapiens, SAOS-2, 96 h, read-out: Saos-2 (HPV−) Proliferation IC50 (μM)
# Description: as §1, §2, §3
compound,measurement,setting,value
"COc1ccc(-c2cc(C)cc3nc(OC(F)F)cnc23)cc1 [Example 6, 2-(difluoromethoxy)-5-(4-methoxyphenyl)-7-methylquinoxaline]",IC50,SiHa (HPV16+) cells,10.1 µM
same,IC50,Saos-2 (HPV−) cells,48 µM

# Source: patent US10517870B2, “Aryl substituted bicycle heteroaryl compounds” (Bristol-Myers Squibb Company, priority 2015, dated 2019)
